Data published in BindingDB's records for doi:10.1016/j.bmcl.2017.11.009 (De Montfort University, 2017).

Legend:
[1] = Inhibition of recombinant human CYP1B1 expressed in HEK293 cells assessed as potentiation of cisplatin-induced cytotoxicity by measuring cisplatin EC50 by MTT assay (Rvb = 65.01 +/- 7.01 uM)
[2] = Inhibition of recombinant human CYP1A1 expressed in HEK293 cells assessed as reduction in benzo(a)pyrene-induced toxicity by measuring B[a]P EC50 at 2 times IC50 by MTT assay (Rvb = 0.8 +/- 0.14 uM)

Row | SMILES | EC50 [1] [µM] | EC50 [2] [µM]
1 | COc1ccc(/C=C/C(=O)c2ccncc2)c(OC)c1OC | 10 | –
2 | COc1cc(/C=C/C(=O)c2ccncc2)cc(OC)c1 | 10 | –
3 | CCOc1cc(/C=C/C(=O)c2ccncc2)cc(OC)c1OCC | – | 14
4 | CCOc1cc(/C=C/C(=O)c2ccncc2)cc(OC)c1OC | – | 14
5 | COc1cc(/C=C/C(=O)c2ccncc2)cc(OC)c1OC | – | 14
6 | COc1ccccc1/C=C/C(=O)c1ccncc1 | 10 | –
7 | COc1cccc(/C=C/C(=O)c2ccncc2)c1 | 10 | –
8 | CCOc1cc(/C=C/C(=O)c2ccncc2)cc(OCC)c1OCC | – | 14
